Measured values taken from ChEMBL document CHEMBL1201862, “PubChem BioAssay data set” (2004).
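48-hour exposure; five concentrations; linearly interpolated endpoints. GI50 is the concentration that inhibits growth by half.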 Active and inactive are the calls of the source. Cut-off read from the data, not from the text of the source: active = GI50 up to about 1.1 µM and inactive = higher.

Assays:
Assay in all cases: inhibition of tumour cell growth, NCI panel, 48 h
OVCAR-4 = system: OVCAR-4
CAKI-1 = system: CAKI-1
MOLT-4 = system: MOLT-4
UACC-257 = system: UACC-257
NCI/ADR-RES = system: NCI/ADR-RES
BT-549 = system: BT-549
MDA-MB-231 = system: MDA-MB-231
M14 = system: M14
MDA-MB-435 = system: MDA-MB-435
HL-60 = system: HL-60
DU-145 = system: DU-145
UO-31 = system: UO-31
MCF7 = system: MCF7
TK-10 = system: TK-10
ACHN = system: ACHN
SW-620 = system: SW-620
SK-MEL-5 = system: SK-MEL-5
SF-295 = system: SF-295
HOP-92 = system: HOP-92
SNB-19 = system: SNB-19
SR = system: SR
SNB-75 = system: SNB-75
RPMI-8226 = system: RPMI-8226
CCRF-CEM = system: CCRF-CEM
Malme-3M = system: Malme-3M
MDA-N = system: MDA-N
NCI-H226 = system: NCI-H226
SF-539 = system: SF-539
K562 = system: K562
NCI-H23 = system: NCI-H23
SN12C = system: SN12C
OVCAR-3 = system: OVCAR-3
OVCAR-8 = system: OVCAR-8
OVCAR-5 = system: OVCAR-5
A549 = system: A549
COLO 205 = system: COLO 205
HT-29 = system: HT-29
HCC 2998 = system: HCC 2998
NCI-H460 = system: NCI-H460
A498 = system: A498
RXF 393 = system: RXF 393
HCT-116 = system: HCT-116
U-251 = system: U-251
SK-MEL-28 = system: SK-MEL-28
HCT-15 = system: HCT-15
PC-3 = system: PC-3
NCI-H522 = system: NCI-H522
786-0 = system: 786-0
KM12 = system: KM12
SK-MEL-2 = system: SK-MEL-2
T47D = system: T47D
SF-268 = system: SF-268
SK-OV-3 = system: SK-OV-3
UACC-62 = system: UACC-62
HOP-62 = system: HOP-62
IGROV-1 = system: IGROV-1
EKVX = system: EKVX

`Nc1nc2ccc(OCC(O)CN3CCCCC3)cc2[n+]([O-])n1` (stereo unspecified) was tested, and the GI50 (OVCAR-4) was > 100 µM (inactive), the GI50 (CAKI-1) was > 100 µM (inactive) and the GI50 (MOLT-4) was > 100 µM (inactive). For the same compound, the GI50 (UACC-257) was > 100 µM (inactive), the GI50 (NCI/ADR-RES) was > 100 µM (inactive) and the GI50 (BT-549) was > 100 µM (inactive). The GI50 (MDA-MB-231) was > 100 µM (inactive), the GI50 (M14) was > 100 µM (inactive) and the GI50 (MDA-MB-435) was > 100 µM (inactive). For the same compound, the GI50 (HL-60) was > 100 µM (inactive), the GI50 (DU-145) was > 100 µM (inactive) and the GI50 (UO-31) was > 100 µM (inactive). For the same compound, the GI50 (MCF7) was > 100 µM (inactive), the GI50 (TK-10) was > 100 µM (inactive) and the GI50 (ACHN) was > 100 µM (inactive). The GI50 (SW-620) was > 100 µM (inactive), the GI50 (SK-MEL-5) was > 100 µM (inactive) and the GI50 (SF-295) was > 100 µM (inactive). For the same compound, the GI50 (HOP-92) was > 100 µM (inactive), the GI50 (SNB-19) was > 100 µM (inactive) and the GI50 (SR) was > 100 µM (inactive). The GI50 (SNB-75) was 70.3 µM (inactive), the GI50 (RPMI-8226) was > 100 µM (inactive) and the GI50 (CCRF-CEM) was > 100 µM (inactive). The GI50 (Malme-3M) was > 100 µM (inactive), the GI50 (MDA-N) was > 100 µM (inactive) and the GI50 (NCI-H226) was > 100 µM (inactive). For the same compound, the GI50 (SF-539) was > 100 µM (inactive), the GI50 (K562) was > 100 µM (inactive) and the GI50 (NCI-H23) was > 100 µM (inactive). For the same compound, the GI50 (SN12C) was > 100 µM (inactive), the GI50 (OVCAR-3) was > 100 µM (inactive) and the GI50 (OVCAR-8) was > 100 µM (inactive). The GI50 (OVCAR-5) was > 100 µM (inactive), the GI50 (A549) was > 100 µM (inactive) and the GI50 (COLO 205) was > 100 µM (inactive). For the same compound, the GI50 (HT-29) was > 100 µM (inactive), the GI50 (HCC 2998) was > 100 µM (inactive) and the GI50 (NCI-H460) was > 100 µM (inactive). For the same compound, the GI50 (A498) was > 100 µM (inactive), the GI50 (RXF 393) was > 100 µM (inactive) and the GI50 (HCT-116) was > 100 µM (inactive). For the same compound, the GI50 (U-251) was > 100 µM (inactive), the GI50 (SK-MEL-28) was > 100 µM (inactive) and the GI50 (HCT-15) was greater than 100 µM. The GI50 (PC-3) was > 100 µM (inactive), the GI50 (NCI-H522) was > 100 µM (inactive) and the GI50 (786-0) was > 100 µM (inactive). For the same compound, the GI50 (KM12) was > 100 µM (inactive) and the GI50 (SK-MEL-2) was > 100 µM (inactive).
`Cc1cc(O)c2c(c1)C(C1OC(CO)C(O)C(O)C1O)c1cc(O)cc(O)c1C2=O` (stereo unspecified) was tested, and the GI50 (OVCAR-4) was > 100 µM (inactive), the GI50 (MOLT-4) was > 100 µM (inactive) and the GI50 (UACC-257) was > 100 µM (inactive). For the same compound, the GI50 (NCI/ADR-RES) was > 100 µM (inactive), the GI50 (BT-549) was > 100 µM (inactive) and the GI50 (MDA-MB-231) was > 100 µM (inactive). For the same compound, the GI50 (M14) was > 100 µM (inactive), the GI50 (T47D) was > 100 µM (inactive) and the GI50 (SF-268) was > 100 µM (inactive). The GI50 (SK-OV-3) was > 100 µM (inactive), the GI50 (MDA-MB-435) was > 100 µM (inactive) and the GI50 (HL-60) was > 100 µM (inactive). For the same compound, the GI50 (UACC-62) was > 100 µM (inactive), the GI50 (DU-145) was > 100 µM (inactive) and the GI50 (UO-31) was > 100 µM (inactive). For the same compound, the GI50 (MCF7) was > 100 µM (inactive), the GI50 (TK-10) was > 100 µM (inactive) and the GI50 (ACHN) was > 100 µM (inactive). The GI50 (SW-620) was > 100 µM (inactive), the GI50 (SK-MEL-5) was > 100 µM (inactive) and the GI50 (SF-295) was > 100 µM (inactive). The GI50 (HOP-62) was > 100 µM (inactive), the GI50 (HOP-92) was > 100 µM (inactive) and the GI50 (SNB-19) was > 100 µM (inactive). For the same compound, the GI50 (SR) was > 100 µM (inactive), the GI50 (SNB-75) was > 100 µM (inactive) and the GI50 (RPMI-8226) was > 100 µM (inactive). The GI50 (CCRF-CEM) was > 100 µM (inactive), the GI50 (Malme-3M) was > 100 µM (inactive) and the GI50 (MDA-N) was > 100 µM (inactive). The GI50 (NCI-H226) was > 100 µM (inactive), the GI50 (K562) was > 100 µM (inactive) and the GI50 (NCI-H23) was > 100 µM (inactive). For the same compound, the GI50 (SN12C) was > 100 µM (inactive), the GI50 (IGROV-1) was > 100 µM (inactive) and the GI50 (OVCAR-3) was > 100 µM (inactive). For the same compound, the GI50 (OVCAR-8) was > 100 µM (inactive), the GI50 (OVCAR-5) was > 100 µM (inactive) and the GI50 (A549) was > 100 µM (inactive). For the same compound, the GI50 (COLO 205) was > 100 µM (inactive), the GI50 (HT-29) was > 100 µM (inactive) and the GI50 (HCC 2998) was > 100 µM (inactive). The GI50 (NCI-H460) was > 100 µM (inactive), the GI50 (EKVX) was > 100 µM (inactive) and the GI50 (A498) was > 100 µM (inactive). For the same compound, the GI50 (HCT-116) was > 100 µM (inactive), the GI50 (U-251) was > 100 µM (inactive) and the GI50 (SK-MEL-28) was > 100 µM (inactive). The GI50 (HCT-15) was greater than 100 µM, the GI50 (PC-3) was > 100 µM (inactive) and the GI50 (786-0) was > 100 µM (inactive).
